Results from US10041936B2, “Neuronal cells cultured on microparticles and methods of using same” (The Regents of the University of California, priority 2009, dated 2018).

Test system: Rat hippocampal neurons
Experiment: Culture of hippocampal neurons on PLL-coated beads in media with mitotic inhibitor
Assay type: cell-based
Description: Borosilicate Glass Spheres (MO-SCI Specialty Products, Rolla, Mo.) were sterilized in an ethanol solution overnight, and dried under vacuum. Then the beads were incubated in a borate buffer solution for one hour, before being left in PLL solution overnight. Hippocampi were removed from embryonic day 18 (E18) rats and treated with trypsin for 20 min at 37° C., followed by washing and trituration. Dissociated cells were plated at 75,000 cells/cm^2 on poly-lysine-coated glass beads and cultured in neurobasal medium supplemented with 2 mM Glutamax, 2% FBS, and 2% B-27. Cells were transfected with Lipofectamine 2000 (Invitrogen) or they were infected with lenti virus after 5-15 days after dissociation and analyzed 2-14 days after infection.
Rat hippocampal neurons were selected as model mammalian brain neurons. Following dissection at a late embryonic stage (E18), or early postnatal stage (P4), the neurons were dissociated and cultured on beads coated with poly-L-lysine (PLL) to enhance cell adhesion and to support maturation.(13, 14) The neurons were grown on the beads using standard techniques developed for conventional 2D cultures (Pautot et al., 2008). […] However, a small number of supporting glial cells, which contribute to neuronal development by stimulating neuron growth and maturation, were also present. […]

## Nc1ccn([C@@H]2O[C@H](CO)[C@@H](O)[C@@H]2O)c(=O)n1 [araC]
araC added to the culture media, no conditioned media
  neuron outgrowth and branching: slowed
araC combined with conditioned media from glial feeder cell cultures, more than 3 weeks
  growth of neurons on the beads: robust growth
